Usually CC50 stands for the concentration giving 50% cytotoxicity. A high value points to lower toxicity to the cells. By EC50 is commonly meant the concentration giving half of the maximal effect.

Series [1] is described as follows: Cytotoxicity against human HeLa cells after 2 hrs by Draq staining based assay. It counts as cell-based.
Series [2] concerns Ebolavirus. In words: Antiviral activity against Ebolavirus Makona infected in human HeLa cells preincubated for 2 hrs followed by viral infection measured after 15 to 20 hrs by Draq5 staining based assay. The following applies: Orthoebolavirus. It counts as functional, cell-based, Zaire ebolavirus Makona.
For another series, the system named is Huh-7. Kind of series: Cytotoxicity against human HuH7 cells after 2 to 3 hrs by CellTiter-Glo assay. It counts as cell-based. In general terms: Cellular ATP, detected with luciferase, serves as a proxy for viable cell number.
In the next series the test system is Rift Valley fever virus. In words: Antiviral activity against Rift Valley fever virus infected in human HeLa cells preincubated for 2 to 3 hrs followed by viral infection measured after 3 days by fluorescence assay. It is filed as functional, cell-based.
The next series concerns Lassa virus. In words: Antiviral activity against Lassa virus infected in human HuH7 cells pretreated for 2 to 3 hrs followed by viral infection measured after 3 days by fluorescence assay. It counts as functional, cell-based. The following applies: Mammarenavirus lassaense, Huh-7.
The test system of the next series is Marburgvirus. In words: Antiviral activity against Marburg virus Ci67 infected in human HeLa cells preincubated for 2 hrs followed by viral infection measured after 15 to 20 hrs by Draq staining based assay. It is filed as functional, cell-based, Lake Victoria marburgvirus - Ci67. Particulars: Orthomarburgvirus.
Series [3] relates to Ebolavirus. Kind of series: Antiviral activity against Sudan virus Gulu infected in human HeLa cells preincubated with cells for 2 hrs followed by viral infection measured after 48 hrs by immunostaining based assay. The following applies: Orthoebolavirus. It counts as functional, cell-based, Sudan ebolavirus.

In series [1], `COc1nc(N)ncc1-c1cn(COCCO)cn1` yielded a CC50 at 2 h of more than 100 µM. Also, the EC50 was more than 100 µM in the series on Ebolavirus [2]; more than 50 µM in the series on Rift Valley fever virus; more than 50 µM in the series with Lassa virus; more than 100 µM with Marburgvirus; more than 100 µM in the series on Ebolavirus [3]. Also, in the series with Huh-7, the CC50 was more than 50 µM.
As for `COc1nc(N)ncc1-c1cn(COCCOC(C)=O)cn1`, the CC50 at 2 h in series [1] was more than 100 µM. Moreover, the 50% effective concentration (EC50) with Ebolavirus [2] is 44 µM; with Marburgvirus, 70 µM; with Ebolavirus [3], 20 µM.
On to `CCC(CC)COC(=O)[C@H](C)N[P@](=O)(OCCOCn1cnc(-c2cnc(N)nc2OC)c1)Oc1ccccc1`, for which the CC50 at 2 h in series [1] is more than 100 µM. The EC50 with Ebolavirus [2] is 29 µM; with Rift Valley fever virus, more than 50 µM; in the series on Lassa virus, more than 50 µM; with Marburgvirus, 62 µM; in the series on Ebolavirus [3], 7 µM. The same molecule yielded a CC50 in the series on Huh-7 of more than 50 µM.

For the origin of these results see ChEMBL document CHEMBL4020744 (Bioorg Med Chem Lett, 2017).
